The values that follow come from PubChem BioAssay (NCI).

Some test systems named below: HOP-62 NSCLC; HT29 colon; U251 CNS; SR leukemia; OVCAR-5 ovarian; BT-549 breast; SF-295 CNS; HCT-15 colon; HS 578T breast; NCI-H460 lung.
Common to all, as to test: DTP human tumour cell line panel, 48 h

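Values below derive from 48-hour exposures of cells grown in 96-well plates, with endpoints linearly interpolated between the two concentrations bracketing the appropriate inhibition level. Abbreviation: GI50, concentration required for 50% inhibition of growth. Definition used: TGI = concentration required for complete inhibition of growth.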 A value given as a limit tells only on which side of the number the result lay.

As a reminder, the GI50 is the concentration giving 50% growth inhibition. As a reminder, the TGI is the concentration at which net growth stops. Read a low TGI as more potent growth arrest. Take `CO/N=C(\COc1ccc2oc(-c3ccccc3)cc(=O)c2c1)c1ccc(OC)cc1`: the GI50 in the assay on HOP-62 NSCLC was 17 µM; in the assay with HT29 colon, 19.7 µM; with U251 CNS, 22.3 µM; in the assay on SR leukemia it was 11.3 µM; in the assay on OVCAR-5 ovarian, 24.6 µM; in the assay with BT-549 breast, 41.2 µM. For the same molecule, the values for the GI50 in the assay with SF-295 CNS, with HCT-15 colon and in the assay on HS 578T breast were 21.7 µM, 30.2 µM and 35.1 µM, respectively. Further, the TGI with HOP-62 NSCLC is 33 µM; in the assay on HT29 colon, 48.6 µM; in the assay with U251 CNS, 53.6 µM; in the assay with SR leukemia it was 36.9 µM; in the assay with OVCAR-5 ovarian, 82.7 µM; with BT-549 breast, above 100 µM. Further, the values for the TGI in the assay with SF-295 CNS, in the assay with HCT-15 colon and with HS 578T breast were 48.9 µM, above 100 µM and above 100 µM, respectively.
Regarding `CN(C)CCNc1c2ccccc2nc2oc3ccccc3c12`, the GI50 was 7.97 µM in the assay with HOP-62 NSCLC; 3.97 µM in the assay on HT29 colon; 7.87 µM in the assay with U251 CNS; 20.6 µM in the assay on OVCAR-5 ovarian; 5.67 µM in the assay on BT-549 breast; 3.37 µM in the assay with NCI-H460 lung. For the same molecule, the GI50 in the assay on SF-295 CNS was 5.99 µM; with HCT-15 colon, 5.04 µM; in the assay with HS 578T breast, 4.6 µM. In addition, the TGI in the assay with HOP-62 NSCLC amounted to 42.6 µM; in the assay on HT29 colon it was 19.6 µM; in the assay on U251 CNS, 24.7 µM; in the assay on OVCAR-5 ovarian, 49.7 µM; in the assay with BT-549 breast it was 18.4 µM; with NCI-H460 lung, 13.3 µM. Also, the TGI in the assay with SF-295 CNS was 24.6 µM; in the assay on HCT-15 colon it was 25 µM; in the assay on HS 578T breast, 20.1 µM.
Take `O=C1c2ccccc2-c2c1c1c(O)cccc1n2Cc1ccccn1`: the GI50 was 84.9 µM with HOP-62 NSCLC; 88.6 µM in the assay on HT29 colon; 94.4 µM in the assay on U251 CNS; 58.5 µM in the assay on OVCAR-5 ovarian; 26.2 µM with BT-549 breast; 52.1 µM in the assay with NCI-H460 lung. For the same molecule, the GI50 with SF-295 CNS was 23.6 µM; in the assay on HCT-15 colon it was 53.8 µM; in the assay with HS 578T breast it was 33.6 µM. Further, the TGI in the assay with HOP-62 NSCLC, in the assay with HT29 colon, with U251 CNS, with OVCAR-5 ovarian, in the assay with BT-549 breast and in the assay on NCI-H460 lung was above 100 µM in each case. Further, the TGI with SF-295 CNS, in the assay with HCT-15 colon and with HS 578T breast was above 100 µM throughout.
Turning to `N#Cc1cc(S(=O)(=O)Nc2nnc(-c3ccccc3)c(-c3ccccc3)n2)c(SCc2ccccc2)cc1Cl`, the GI50 is 28.3 µM with HOP-62 NSCLC; 17.8 µM with U251 CNS; 27.5 µM with SR leukemia; 30.9 µM with BT-549 breast; 38.7 µM with NCI-H460 lung; 24.8 µM in the assay on SF-295 CNS. Also, the GI50 was 17.4 µM in the assay on HCT-15 colon and 22.4 µM in the assay on HS 578T breast. The TGI in the assay with HOP-62 NSCLC was 83.5 µM; with U251 CNS it was 33.1 µM; in the assay with SR leukemia, above 100 µM; in the assay on BT-549 breast, 89.6 µM; in the assay on NCI-H460 lung, above 100 µM; with SF-295 CNS, 46.5 µM. Moreover, the figures for the TGI with HCT-15 colon and in the assay on HS 578T breast were 33.3 µM and 63.3 µM, respectively.
Take `Cc1cn2c(/C=N/N=C(N)N)c(-c3ccccn3)nc2s1`: the GI50 was 10.5 µM in the assay on HOP-62 NSCLC; 19.4 µM in the assay with HT29 colon; 19.1 µM with U251 CNS; 22.3 µM in the assay with OVCAR-5 ovarian; 7.69 µM in the assay with BT-549 breast; 14.9 µM with NCI-H460 lung. The GI50 with SF-295 CNS was 17.1 µM; with HCT-15 colon, 19.5 µM; with HS 578T breast it was 19.5 µM. The TGI in the assay on HOP-62 NSCLC is 26.9 µM; with HT29 colon, above 92.8 µM; with U251 CNS, 45.1 µM; with OVCAR-5 ovarian, 46 µM; with BT-549 breast, 25.9 µM; with NCI-H460 lung, above 75.6 µM. The values for the TGI in the assay on SF-295 CNS, with HCT-15 colon and in the assay on HS 578T breast were 37.1 µM, 39.1 µM and 55.6 µM, respectively.
For `C=C(CO)[C@@H]1CC[C@]2(COC3CCCCO3)CC[C@]3(C)[C@H](CC[C@@H]4[C@@]5(C)C=C(C=O)C(=O)C(C)(C)[C@@H]5CC[C@]43C)[C@@H]12` (stereo partly specified), the GI50 is 1.51 µM with HOP-62 NSCLC; 0.327 µM in the assay with HT29 colon; 0.209 µM with U251 CNS; 0.232 µM with OVCAR-5 ovarian; 0.221 µM in the assay on BT-549 breast; 0.5 µM in the assay with NCI-H460 lung. The GI50 in the assay with SF-295 CNS was 0.506 µM; in the assay on HCT-15 colon, 0.247 µM; in the assay with HS 578T breast, 0.318 µM. Also, the TGI worked out at 3.23 µM in the assay on HOP-62 NSCLC; 1.1 µM in the assay on HT29 colon; 0.546 µM in the assay on U251 CNS; 0.853 µM with OVCAR-5 ovarian; 0.619 µM with BT-549 breast; 1.75 µM in the assay on NCI-H460 lung. Also, the TGI came out at 1.79 µM in the assay on SF-295 CNS, 0.718 µM in the assay on HCT-15 colon and 0.997 µM with HS 578T breast.
`N#Cc1c(N)nc(N2CCOCC2)c(C#N)c1-c1ccccn1`: the GI50 with HOP-62 NSCLC, in the assay on HT29 colon, with U251 CNS, with OVCAR-5 ovarian, in the assay with BT-549 breast and with NCI-H460 lung was above 100 µM in each case. The GI50 in the assay on SF-295 CNS, in the assay with HCT-15 colon and in the assay on HS 578T breast was above 100 µM in each case. The TGI in the assay on HOP-62 NSCLC, in the assay on HT29 colon, in the assay with U251 CNS, with OVCAR-5 ovarian, in the assay with BT-549 breast and in the assay on NCI-H460 lung was above 100 µM each time. Further, the concentration for total growth inhibition (TGI) in the assay with SF-295 CNS, with HCT-15 colon and in the assay on HS 578T breast was above 100 µM each time.
As for `CCOC(=O)c1cc(-c2ccccc2)[nH]c1N/N=C/c1ccc(Cl)cc1`, the GI50 in the assay with HOP-62 NSCLC is 87.3 µM; in the assay on HT29 colon, 37.3 µM; in the assay on U251 CNS it was above 100 µM; in the assay with OVCAR-5 ovarian, above 100 µM; in the assay with BT-549 breast it was 46.8 µM; with NCI-H460 lung, 58.1 µM. Also, the GI50 is above 100 µM with SF-295 CNS, 49.3 µM in the assay with HCT-15 colon and 77.7 µM with HS 578T breast. Also, the TGI in the assay with HOP-62 NSCLC, in the assay on HT29 colon, in the assay on U251 CNS, in the assay on OVCAR-5 ovarian, with BT-549 breast and with NCI-H460 lung was above 100 µM in each case. Also, the TGI in the assay with SF-295 CNS, with HCT-15 colon and with HS 578T breast was above 100 µM throughout.
For `C/C(=N\NC(=S)SCc1ccccc1)c1ccccn1`, the TGI turned out to be 15.6 µM in the assay with HT29 colon; 13.3 µM in the assay on U251 CNS; 1.77 µM with SR leukemia; 9.71 µM in the assay with OVCAR-5 ovarian; 6.07 µM in the assay on BT-549 breast; 10.6 µM with NCI-H460 lung. The TGI amounted to 9.26 µM with SF-295 CNS, 12.1 µM in the assay on HCT-15 colon and 26.3 µM with HS 578T breast.
